# Source: Sander's compilation of Henry's law constants (doi:10.1002/etc.5620090606)
# Assay: Henry solubility constant Hcp at 298.15 K (mol/(m3 Pa))
# Settings: reference: Fendinger and Glotfelty (1990)
row,Structure (SMILES),Henry solubility constant Hcp
1,Cc1cccc2ccccc12 [1-methylnaphthalene],0.016
2,"Clc1ccccc1-c1ccccc1Cl [2,2'-dichlorobiphenyl]",0.04
3,"c1ccc2c(c1)Cc1ccccc1-2 [2,3-benzindene]",0.16
4,Cc1ccc2ccccc2c1 [2-methylnaphthalene],0.031
5,"Clc1ccc(-c2ccc(Cl)cc2)cc1 [4,4'-dichlorobiphenyl]",0.1
6,c1cc2c3c(cccc3c1)CC2 [acenaphthene],0.16
7,C1=Cc2cccc3cccc1c23 [acenaphthylene],0.088
8,c1ccc2cc3ccccc3cc2c1 [anthracene],0.51
9,c1ccc(-c2ccccc2)cc1 [biphenyl],0.051
10,CCOP(=S)(OCC)Oc1nc(Cl)c(Cl)cc1Cl [chlorpyrifos],2.4
11,CCOC(=O)CC(SP(=S)(OC)OC)C(=O)OCC (stereo unspecified) [malathion],2000
12,COP(=S)(OC)Oc1ccc([N+](=O)[O-])cc1 [methylparathion],160
13,c1ccc2ccccc2c1 [naphthalene],0.013
14,CCOP(=S)(OCC)Oc1ccc([N+](=O)[O-])cc1 [parathion],120
15,CCC(CC)Nc1c([N+](=O)[O-])cc(C)c(C)c1[N+](=O)[O-] [penoxaline],12
16,c1ccc2c(c1)ccc1ccccc12 [phenanthrene],0.42
